Laboratory results from patent US11253565B2, “Nanoparticle ophthalmic composition for the treatment of ocular disorders or diseases” (Eye Pharma S.p.A., priority 2017, dated 2022).

Legend:
[1] = Corneal permeabilization / bioavailability test on whole ox eye with fluoresceine tracer; format: in vitro ADME; conditions: 30 minutes after application on anterior corneal surface
Procedure: The bioavailability was tested on whole ox eye (in vitro test) and on rabbit eyes (test in vivo) by applying the eye drops on the anterior corneal surface. A fluorescent tracer (fluoresceine) was added to the eye drops to follow the intraocular pharmacokinetics thereof. The transcorneal distribution of the std eye drops was evaluated by a slit lamp with determination of the fluorescence on both sides of the corneal membrane. A fluorescent tracer was added to the eye drops in order to follow the intraocular pharmacokinetics thereof. […] At the end of the prescribed time, its adsorption through the anterior chamber was assessed using a slit lamp. […] After the treatment, the fluid contained in the anterior chamber was collected and subjected to spectrofluorimetric analysis for the quantification of the tracer able to cross the corneal membrane. For the analysis, a […] spectrofluorometer (Hitachi, Tokyo, Japan) calibrated on specific fluorescence characteristics of fluoresceine (excitation 500 nm, emission 561 nm) was used. […] The ability of the std eye drops, both as such and in nanoparticle form, to pass the corneal membrane was thus determined by analysis del fluorescent track present in the fluid in the anterior chamber 30 minutes after the application of the preparation on the anterior corneal surface.

[2] = test system: Sclerocorneal human trabecular meshwork cells (HTM cells); test: MTT cell viability test on HTM cells with or without H2O2 oxidative damage; format: cell-based; conditions: H2O2 only
Procedure: (§1) Commercially available endothelial cellular lines of sclerocorneal trabecular meshwork were used. Said lines undergone a physiological ageing lasted about 10 cycles of cellular replication, thus representing a validated in vitro model of sclerocorneal trabecular meshwork degeneration. Sclerocorneal human trabecular meshwork cells (HTM cells. ScienceCell Research Laboratories, CA, USA) were grown in a nutritional medium containing 10% v/v fetal bovine serum, 2 mM L-glutamine, penicillin (100 IU/mL) at 37° C. in the presence of 5% v/v CO2. Once cells were semi-confluent (80% covering of the plate surface), cells were collected by treatment with trypsin/EDTA and distributed in multiwell microplates at a density of 7×10^3 cells/well. Cells at 80% confluence were pre-treated for 30 minutes with 50 μL of eye drops with different polyphenolic concentration (0.15% Perilla frutescens extract in 0.25% sodium hyaluronate (high eye drops) compared with a 0.10% Perilla frutescens extract in 0.25% sodium hyaluronate (standard eye drops)). […]
At the end of the treatment, the culture medium was removed, and cell viability and genotoxic damage were evaluated. […]
In particular, cell viability was assessed using the metabolization test of 3-(4,5-dimethyithiazol-2-yl)-2,5-diphenyltetrazolium bromide (MTT). […] The results were analysed by ANOVA using the Statview statistic software.

[3] = test system: HTM cells; test: Microscopic morphologic aspect of HTM cells in the different conditions of treatment; format: cell-based, human; conditions: treatment with substance only
Procedure: as §1

[4] = test system: HTM cells; test: Genotoxic damage (comet test) in HTM cells; format: cell-based, human; conditions: treatment with substance only
Procedure: Commercially available endothelial cellular lines of sclerocorneal trabecular meshwork were used. Said lines undergone a physiological ageing lasted about 10 cycles of cellular replication, thus representing a validated in vitro model of sclerocorneal trabecular meshwork degeneration. Sclerocorneal human trabecular meshwork cells (HTM cells. ScienceCell Research Laboratories, CA, USA) were grown in a nutritional medium containing 10% v/v fetal bovine serum, 2 mM L-glutamine, penicillin (100 IU/mL) at 37° C. in the presence of 5% v/v CO2. […]
For the assessment of genotoxic damage, the comet test was used. […] In particular, the aspect of DNA fragmentation acquired by the comet test in HTM cells was evaluated. […] The images were then analysed at 400 magnifications by fluorescence microscope (Leica DMI 4000B) equipped with digital camera (Leica DFC 310 FX). For each slide a minimum of 100 nuclei were analysed by CASP imaging analysis system (Comet assay software project, http://www.casp.sourceforge.net). Single-strand and double-strand breaks were quantified in terms of “tail moment”, which is the product of the comet tail length multiplied by the total DNA fraction in the tail. […] The significance of differences among the various treatments was determined by ANOVA test.

| Structure (SMILES) | fluorescent tracer in the fluid of the anterior chamber (spectrofluorimetry) [1] | cytopathic effect (MTT cell viability) [2] | HTM cell morphology [3] | DNA damage / fragmentation (comet test) [4] |
| --- | --- | --- | --- | --- |
| O=C1OC2(c3ccc(O)cc3Oc3cc(O)ccc32)c2ccccc21 [fluoresceine, fluorescein sodium] | conspicuous and specific positive signal |  |  |  |
| OO [H2O2] |  | substantial cytopathic effect | cells take a rounded shape, separate from the substrate and reflect the light | nuclei are massively dissolved with evident diffusion of the fragmented DNA |
